Several values for one entry are separate records, joined by “and”; a condition that tells them apart may be missing. Equal entries are not always repeated.
Legend:
Assay in all cases: Time to Kill
Assay type in all cases: cell-based
[1] = system: Candida albicans; conditions: 128 ppm; for Exposure time to complete kill: C. albicans, challenge 10^4-10^5 CFU/mL; for Number of Microbial Colonies: Candida albicans, replicates 1-5
Description: (§1) Alexidine and Chlorhexidine, both at a concentration of 128 ppm were exposed to a Gram positive bacteria (Staphylococcus aureus), a Gram negative bacteria (Pseudomonas aeruginosa), and a fungus (Candida albicans). The challenge concentration for each organism was 10^4-10^5 CFU/mL, and the exposure time varied from 0.5-60 minutes. […] Complete kill of all three organisms was observed within 0.5-1 minute of Alexidine exposure.

[2] = system: Pseudomonas aeruginosa; conditions: 128 ppm; for Exposure time to complete kill: P. aeruginosa, challenge 10^4-10^5 CFU/mL; for Number of Microbial Colonies: Pseudomonas aeruginosa, replicates 1-5
Description: as §1

[3] = system: Staphylococcus aureus; conditions: 128 ppm; for Exposure time to complete kill: S. aureus, challenge 10^4-10^5 CFU/mL; for Number of Microbial Colonies: Staphylococcus aureus, replicates 1-5
Description: as §1

[4] = exposure 0.5 minutes, TNTC = too numerous to count
[5] = exposure 1 minute, TNTC = too numerous to count
[6] = exposure 5 minutes, TNTC = too numerous to count

Compound: CCCCC(CC)CNC(=N)NC(=N)NCCCCCCNC(=N)NC(=N)NCC(CC)CCCC (stereo not drawn) [Alexidine]
- Exposure time to complete kill [1]: 0.5 to 1 min
- Number of Microbial Colonies [1, 4]: 3 and 0 (4×)
- Number of Microbial Colonies [1, 5]: 0 (4×) and 1
- Number of Microbial Colonies [1, 6]: 0
- Number of Microbial Colonies ([1]; exposure 60 minutes): 0
- Exposure time to complete kill [2]: 0.5 to 1 min
- Number of Microbial Colonies ([2]; exposure 0.5 minutes): 0
- Number of Microbial Colonies ([2]; exposure 1 minute): 0
- Number of Microbial Colonies ([2]; exposure 5 minutes): 0
- Number of Microbial Colonies ([2]; exposure 60 minutes): 0
- Exposure time to complete kill [3]: 0.5 to 1 min
- Number of Microbial Colonies [3, 4]: 0
- Number of Microbial Colonies [3, 5]: 0
- Number of Microbial Colonies [3, 6]: 0
- Number of Microbial Colonies ([3]; exposure 60 minutes): 0

Compound: [H]/N=C(\N/C(=N/[H])NCCCCCCNC(=N)NC(=N)Nc1ccc(Cl)cc1)Nc1ccc(Cl)cc1 [Chlorhexidine]
- Exposure time to complete kill [1]: 60 min
- Number of Microbial Colonies [1, 4]: TNTC
- Number of Microbial Colonies [1, 5]: TNTC
- Number of Microbial Colonies [1, 6]: 30 and 20 and 32 and 24 and TNTC
- Number of Microbial Colonies ([1]; exposure 60 minutes): 0
- Exposure time to complete kill [2]: 5 min
- Number of Microbial Colonies ([2]; exposure 0.5 minutes): 7 and 4 and 5 and 2 and 1
- Number of Microbial Colonies ([2]; exposure 1 minute): 1
- Number of Microbial Colonies ([2]; exposure 5 minutes): 0
- Number of Microbial Colonies ([2]; exposure 60 minutes): 0
- Exposure time to complete kill [3]: 60 min
- Number of Microbial Colonies [3, 4]: TNTC
- Number of Microbial Colonies [3, 5]: TNTC
- Number of Microbial Colonies [3, 6]: TNTC
- Number of Microbial Colonies ([3]; exposure 60 minutes): 1 (2×) and 0 (3×)

From patent US20210037829A1, “ANTIMICROBIAL COMPOSITIONS FOR SURGICAL APPLICATIONS” (TELEFLEX MEDICAL INCORPORATED, priority 2015, published 2021)
